Measurements taken from ChEMBL document CHEMBL5149973, “Agaricus bisporus-Derived Glucosamine Hydrochloride Facilitates Skeletal Injury Repair through Bmp Signaling in Zebrafish Osteoporosis Model” (J Nat Prod, 2021).
Active and inactive are the calls of the source. No cut-off for these calls is given here.

Experiments:
[1] = Induction of Zebrafish Larva cartilage development assessed as increase in bone mineralization at 0.3 % measured at 6 days post fertilization by Alizarin red staining based assay; format: functional, Danio rerio; conditions: time 6 day
[2] = species on record: Danio rerio; assay: Induction of Zebrafish embryo skeletal development assessed as nuclear localization of p-Smad1 in head at 0.1 % measured at 24 to 72 hrs post fertilization by DAPI staining based analysis; format: functional, tissue-based; conditions: time 24-72 hrs
[3] = system: Osteoblast; assay: Induction of osteoblast differentiation in Zebrafish embryo assessed as upregulation of runx2b gene expression in operculum measured at 0.75 to 72 hrs post fertilization at 0.05 to 0.3 % by […] analysis; format: functional, tissue-based; conditions: Danio rerio, dose 0.05-0.3 %, time 0.75-72 hrs
[4] = species on record: Danio rerio; assay: Anti-osteoporosis activity in FAC-induced skeletal injury Zebrafish larvae assessed as reduction in bone damage measured for 10 day post fertilization by Alizarin red staining based assay; format: functional, Larva; parameters: scale not given: the % may be the effect or the level left
[5] = species on record: Danio rerio; assay: Induction of Zebrafish embryo skeletal development assessed as increase in Bmp2b mRNA expression level expanded from ventral side to dorsal side at 0.1 to 0.3 % measured at 24 hrs post fertilization by ISH analysis; format: functional, tissue-based; conditions: dose 0.1-0.3 %
[6] = species on record: Danio rerio; assay: Induction of Zebrafish embryo skeletal development assessed as Bmp2b localization in cytoplasm at 0.1 % measured at 24 to 72 hrs post fertilization; format: functional, tissue-based; conditions: time 24-72 hrs
[7] = species on record: Danio rerio; assay: Induction of Zebrafish embryo skeletal development assessed as increase in Bmp4 mRNA expression level in head at 0.1 to 0.3 % measured at 24 hrs post fertilization by ISH analysis; format: functional, tissue-based; conditions: dose 0.1-0.3 %
[8] = species on record: Danio rerio; assay: Suppression of Bmp signaling in Zebrafish embryos assessed as decrease in Bmp4 gene expression level at 0.1 % measured at 26 hrs post fertilization by semiquantitative PCR analysis; format: functional, tissue-based; conditions: Embryo
[9] = species on record: Danio rerio; assay: Induction of Zebrafish Larva cartilage development assessed as increase in bone mineralization at 0.05 to 0.3 % measured at 6 days post fertilization by Alizarin red staining based assay; format: functional; conditions: dose 0.05-0.3 %, time 6.0 day
[10] = Induction of Zebrafish Larva cartilage development assessed as increase in bone mineralization at 0.1 % measured at 6 days post fertilization by Alizarin red staining based assay; format: functional, Danio rerio; conditions: time 6 day
[11] = Induction of Zebrafish embryo skeletal development assessed as mortality rate of embryo at 0.5 % measured after 72 hrs post fertilization by Alcian blue staining based assay; format: functional, Danio rerio
[12] = species on record: Danio rerio; assay: Induction of transgenic Zebrafish embryo skeletal development assessed as increase in GFP expression level in neural crest at 0.05 to 0.3 % measured at 24 to 72 hrs post fertilization by DAPI staining based analysis; format: functional, tissue-based; conditions: dose 0.05-0.3 %, time 24-72 hrs
[13] = species on record: Danio rerio; assay: Anti-osteoporosis activity in FAC-induced skeletal injury Zebrafish assessed as rescue of skeletal density in caudal fins at 0.1 % measured for 10 day post fertilization; format: functional, organism-based
[14] = system: Osteoblast; assay: Induction of osteoblast differentiation in Zebrafish embryo assessed as upregulation of sox9b gene expression in head measured at 0.75 to 72 hrs post fertilization at 0.05 to 0.3 % by ELISA analysis; format: functional, tissue-based; conditions: Danio rerio, dose 0.05-0.3 %, time 0.75-72 hrs
[15] = Induction of Zebrafish Larva caudal fin regeneration measured for 15 days by Calcein staining based assay; format: functional, Danio rerio; conditions: time 15 day
[16] = species on record: Danio rerio; assay: Anti-osteoporosis activity in FAC-induced skeletal injury Zebrafish larvae assessed as increase in Col1a2 mRNA expression level measured for 10 day post fertilization by semiquantitative-PCR analysis; format: functional, organism-based; conditions: Larva
[17] = Induction of Zebrafish Larva cartilage development assessed as increase in H3 phenotype ratio at 0.05 % measured after 5 days post fertilization by Alcian blue staining based assay; format: functional, Danio rerio; conditions: time 5 day
[18] = species on record: Danio rerio; assay: Suppression of Bmp signaling in Zebrafish tBr injected mRNA embryos assessed as reduction in slight loss of tail tissue at 2.5 uM measured at 26 hrs post fertilization; format: functional, Embryo; parameters: scale not given: the % may be the effect or the level left
[19] = species on record: Danio rerio; assay: Induction of Zebrafish embryo skeletal development assessed as upregulation of col10a1a gene expression in operculum at 0.01 to 0.3 % measured after 72 hrs post fertilization by […] analysis; format: functional; conditions: dose 0.01-0.3 %
[20] = species on record: Danio rerio; assay: Induction of transgenic Zebrafish embryo skeletal development assessed as increase in GFP expression level in head at 0.05 to 0.3 % measured at 24 to 72 hrs post fertilization by DAPI staining based analysis; format: functional, tissue-based; conditions: dose 0.05-0.3 %, time 24-72 hrs
[21] = Induction of Zebrafish embryo skeletal development assessed as mortality rate of embryo at 0.3 % measured after 72 hrs post fertilization by Alcian blue staining based assay; format: functional, Danio rerio
[22] = Induction of Zebrafish embryo skeletal development assessed as mortality rate of embryo at 0.1 % measured after 72 hrs post fertilization by Alcian blue staining based assay; format: functional, Danio rerio
[23] = Induction of Zebrafish embryo skeletal development assessed as fatality rate measured at percentage concentration incubated after 72 hrs post fertilization by Alcian blue staining based assay; format: functional, Danio rerio
[24] = species on record: Danio rerio; assay: Suppression of Bmp signaling in Zebrafish embryo assessed as reduction in slight loss of tail tissue at 0.1 % measured at 26 hrs post fertilization in presence of dorsomorphin; format: functional; parameters: scale not given: the % may be the effect or the level left
[25] = species on record: Danio rerio; assay: Induction of Zebrafish embryo skeletal development assessed as nuclear localization of p-Smad5 in tail at 0.1 % measured at 24 to 72 hrs post fertilization by DAPI staining based analysis; format: functional, tissue-based; conditions: time 24-72 hrs
[26] = system: Osteoblast; assay: Induction of osteoblast differentiation in transgenic osx mCherry Zebrafish embryo assessed as increase in Col1a2 mRNA expression in fin at 0.1 % measured after 15 days by semiquantitative PCR analysis; format: functional, tissue-based; conditions: Danio rerio, time 15.0 day
[27] = species on record: Danio rerio; assay: Induction of Zebrafish embryo skeletal development assessed as increase in gfp expression level in tail at 0.05 to 0.3 % measured at 24 to 72 hrs post fertilization by DAPI staining based analysis; format: functional, tissue-based; conditions: dose 0.05-0.3 %, time 24-72 hrs
[28] = system: Osteoblast; assay: Induction of osteoblast differentiation in transgenic osx mCherry Zebrafish embryo assessed as increase in sp7 mRNA expression in distal fin rays at 0.1 % measured after 6 days by ISH analysis; format: functional; conditions: Danio rerio, time 6.0 day
[29] = system: Osteoblast; assay: Induction of osteoblast differentiation in Zebrafish embryo assessed as upregulation of runx2b gene expression in head measured at 0.75 to 72 hrs post fertilization at 0.05 to 0.3 % by […] analysis; format: functional; conditions: Danio rerio, dose 0.05-0.3 %, time 0.75-72 hrs
[30] = system: Osteoblast; assay: Induction of osteoblast differentiation in transgenic osx mCherry Zebrafish embryo assessed as increase in Col10a1a mRNA expression in fin at 0.1 % measured after 15 days by semiquantitative PCR analysis; format: functional; conditions: Danio rerio, time 15.0 day
[31] = system: Osteoblast; assay: Induction of osteoblast differentiation in Zebrafish embryo assessed as upregulation of sox9a gene expression in head measured at 0.75 to 72 hrs post fertilization at 0.05 to 0.3 % by […] analysis; format: functional; conditions: Danio rerio, dose 0.05-0.3 %, time 0.75-72 hrs
[32] = species on record: Danio rerio; assay: Anti-osteoporosis activity in FAC-induced skeletal injury Zebrafish larvae assessed as increase in BGP mRNA expression level measured for 10 day post fertilization by semiquantitative-PCR analysis; format: functional, organism-based; conditions: Larva
[33] = species on record: Danio rerio; assay: Induction of Zebrafish embryo skeletal development assessed as nuclear localization of p-Smad5 in head at 0.1 % measured at 24 to 72 hrs post fertilization by DAPI staining based analysis; format: functional, tissue-based; conditions: time 24-72 hrs
[34] = Induction of Zebrafish embryo skeletal development assessed as mortality rate of embryo at 0.03 % measured after 72 hrs post fertilization by Alcian blue staining based assay; format: functional, Danio rerio

Cl.N[C@@H]1[C@@H](O)[C@H](O)[C@@H](CO)O[C@H]1O
Activity [1]: 79% | Activity [2]: Active | Activity [3]: Active | Activity [4]: 70% | Activity [5]: Active | Activity [6]: Active | Activity [7]: Active | Activity [8]: Active | Activity [9]: Active | Activity [10]: 88% | Activity [11]: 100% | Activity [12]: Active | Activity [13]: Active | Activity [14]: Active | Activity [15]: 50% | Activity [16]: Active | Activity [17]: 40% | Activity [18]: 80% | Activity [19]: Active | Activity [20]: Active | Activity [21]: 28% | Activity [22]: 24% | IC50 [23]: 0.324% | Activity [24]: 50% | Activity [25]: Active | Activity [26]: Active | Activity [27]: Active | Activity [28]: Active | Activity [29]: Active | Activity [30]: Active | Activity [31]: Active | Activity [32]: Active | Activity [33]: Active | Activity [34]: 16%
